Results reported in publication PMC7762498, “Demethoxycurcumin analogue DMC-BH exhibits potent anticancer effects on orthotopic glioblastomas” (Aging (Albany NY), 2020).

What was measured:
[1] = system: p-Akt; experiment: Western blot of orthotopic xenograft tissue, p-Akt; assay type: in vivo, mice; conditions: U87 orthotopic xenografts, versus control
Excerpt: The PI3K/Akt/mTOR signaling pathway is over activated in glioma tissues, and this increased activation is closely related to malignancy and chemoresistance of gliomas. Previous research reported that among its potential anti-tumor actions in breast cancer, DMC targeted multiple AMPK downstream pathways involving dephosphorylation of Akt and mTOR inhibition. Because DMC-BH is a DMC derivative, we further investigated the inhibitory effects of DMC-BH on gliomas by targeting the Akt/mTOR signaling pathway. We evaluated the expression of p-Akt, and p-mTOR in tumor tissues after DMC-BH treatment (Figure 6A). […] No significant changes were found in total Akt and mTOR expression. Moreover, the expression of p-Akt and p-mTOR in the DMC group was decreased with that in the control group (P < 0.05).
Figure 6 The effects of DMC-BH and DMC on the Akt/mTOR signaling pathway in U87 orthotopic glioblastoma xenografts. (A) Total protein was extracted from U87 orthotopic glioblastoma xenografts. Then p-Akt and p-mTOR protein expression was detected by Western blot. (B) The column chart illustrates the relative expression levels of these proteins.

[2] = Plasma protein binding; assay type: in vitro ADME
[3] = system: C6 glioma cells; experiment: MTT cell viability assay, C6; assay type: cell-based; conditions: Rattus norvegicus, 72 hours
Protocol: (§1) To investigate the cytotoxicity of DMC-BH on glioma cells (Figure 1A), we used an MTT assay to assess viability changes in SHG-44, C6, U251, U87, A172 and primary glioma cells treated with various concentrations of DMC-BH for 24, 48 or 72 hours (Figure 1B–1H). […] U251 and SHG-44 cells were more sensitive to DMC-BH. We then used the human glial cell line, HEB, to evaluate the toxicity of DMC-BH in normal cells. […] DMC-BH was not toxic to normal cells.
(§2) The human GBM U87-luc cell line was purchased from the Shanghai Sunbio Medical Biotechnology Co., Ltd. (Shanghai, China). Cells were cultured in DMEM supplemented with 10% fetal bovine serum (FBS) and maintained in an incubator at 37° C and 5% CO2. After cells were routinely passaged at 2- to 3-day intervals, animal experiments were carried out when the cells entered exponential growth phase. Rat C6, human SHG-44, U87, A172 and U251 glioma cells were obtained from the Shanghai Institute of Cell Biology, Chinese Academy of Sciences (Shanghai, China). Primary glioma cells were preserved by our laboratory from previous studies. […]
(§3) Glioblastoma cells were seeded into 96-well plates and exposed to vehicle (PBS) or different concentrations of DMC-BH for 24, 48 or 72 hours. Cell viability was measured using an MTT assay and was expressed as a ratio to the absorbance value of the control cells at 570 nm.

[4] = BBB penetrability (brain-to-plasma AUC ratio); assay type: in vivo
Excerpt: To determine whether DMC-BH inhibits the growth of glioma in the brain, we assessed its octanol-water partition coefficients and BBB penetrability. The hydrophobic parameters (logP) of DMC-BH and DMC were estimated under physiological as well as in acidic and basic conditions. The logP values for DMC-BH were negative at pH 2.5 and pH 9.0, as it was an amphoteric compound. At low pH or high pH conditions, DMC-BH occurred in the form of salts, and its logP values became negative due to better solubility.
Figure 2 Octanol-water partition coefficients (logP) and BBB penetrability of DMC-BH. (A) The logP was defined as log(Coctanol/Cwater). The amount of the compound in the water phase was determined spectrophotometrically, and the amount in the octanol phase was obtained by subtracting the supernatant concentration from the total concentration. (B) The BBB penetrability was defined as a brain-to-plasma AUC(time point) ratio. Values are expressed as the means ± SEM of 3 independent experiments.

[5] = system: human glial cell line, HEB; experiment: MTT assay on normal glial cells; assay type: cell-based; conditions: 24 hours of incubation with 32 μM
Protocol: as §1, §3

[6] = system: U87 cell line; experiment: Subcutaneous human glioma xenograft in SCID mice; assay type: in vivo; conditions: for tumor volume at day 21: U87 subcutaneous xenograft, 20 mg/kg/day intraperitoneal, 21 days, control 1514 mm^3; for median survival: U87 xenograft, 20 mg/kg, control 15 days
Excerpt: To examine the anti-glioma effects of DMC-BH in vivo, a human glioma-SCID (severe combined immunodeficient) mouse model was established using the U87 cell line. […] The tumor volumes for the control, TMZ, DMC, and DMC-BH mice at day 21 were 1514 mm^3, 587 mm^3, 876 mm^3 and 570 mm^3, respectively. […] As shown in the Kaplan-Meier curves, the median survival was 15, 27, 19 and 35 days for the control, TMZ, DMC and DMC-BH groups, respectively (Figure 3B).
Figure 3 DMC-BH inhibited U87 glioma cell growth in vivo. Subcutaneous tumors generated from U87 cells were allowed to reach a volume of 150-200 mm^3 and were treated with 20 mg/kg TMZ, DMC or DMC-BH for 21 days. (A) Tumor volume was recorded according to treatment group at the indicated day. (B) The survival of brain tumor-bearing mice was recorded and represented in a Kaplan-Meier plot.
1-[4-Hydroxy-3-(pyrrolidin-1-ylmethyl) phenyl]-7-(4-hydroxy-3-methoxyphenyl) hepta-1,6-diene-3,5-dione, named DMC-BH, was constructed by our lab. DMC was obtained from Sigma-Aldrich (St. Louis, MO). To test the anti-glioma effect of DMC-BH in vivo, a xenograft model of human glioma was established. Four-week-old male SCID mice were purchased from Vital River Laboratory Animal Technology Co., Ltd. (Beijing, China). After a 1-week acclimatization, SCID mice were injected subcutaneously in the right flank with 6 × 10^5 […] glioma cells resuspended in 50 μL DMEM media. Treatment was initiated when the subcutaneous tumors reached an average size of 150 mm^3 to 200 mm^3. Mice received intraperitoneal injection of DMC (20 mg/kg/day), DMC-BH (20 mg/kg/day), TMZ (20 mg/kg/day) or vehicle as a control. Tumor diameter was measured every 2 days with calipers, and the tumor volume was calculated (length × width × height × 0.5). All experiments were carried out in keeping with the procedures and protocols of the Animal Ethics Committee of the First People's Hospital of Kunshan.

[7] = system: U251 glioma cells; experiment: MTT cell viability assay, U251; assay type: cell-based; conditions: Homo sapiens, U-251, 72 hours
Protocol: as §1, §2, §3

| Compound | p-Akt expression in tumor tissues [1] | fraction unbound [2] | IC50 [3] | Kp at 4 h ([4]; brain and plasma) | viability of HEB cells [5] | tumor volume at day 21 [6] | median survival [6] | IC50 [7] | brain-to-plasma AUC(4h) ratio [4] |
| --- | --- | --- | --- | --- | --- | --- | --- | --- | --- |
| COc1cc(C=CC(=O)CC(=O)C=Cc2ccc(O)c(CN3CCCC3)c2)ccc1O [DMC-BH, 1-[4-Hydroxy-3-(pyrrolidin-1-ylmethyl)phenyl]-7-(4-hydroxy-3-methoxyphenyl) hepta-1,6-diene-3,5-dione] | significantly decreased | 0.038 | 5.79 µM | 4.6 | not reduced markedly | 570 mm^3 | 35 days | 2.52 µM |  |
| Demethoxycurcumin [DMC, reference compound] | decreased |  |  |  |  | 876 mm^3 | 19 days |  | 0.56 |
